Like-named read-outs stand apart in the source and are kept apart here.
Test system: smooth muscle cells (SMC)
Test: anti-proliferation assay (perlecan)
Format: cell-based
Details: for activity in anti-proliferation assay (Perlecan), in words: using the same activity scale used in Table 3; for IC50: anti-proliferation assay (perlecan)
Method: The activity scale used in Table 3 as follows (numbers are inclusive): “+++” represents IC50 of less than about 3 μM; “++” represents IC50 of between about 3 and about 7 μM; and “+” represents IC50 of greater than about 7 μM. In addition, compounds, to include compositions thereof, encompassed within the scope of structures Ia-XXIVa, respectively, or listed in Tables 1A and 1E may be likewise employed in this embodiment and/or aspect of the present invention. Further, any hydrogen atoms that are required for any atom to attain its usual valence in a structure presented in Table 3, whether a carbon atom or a heteroatom, should be inferred if it is not specifically indicated.
In addition to the above compounds, the following compounds and compositions comprising these compounds are active in an anti-proliferation assay (Perlecan). These compounds and compositions comprising these compounds are, among other things, generally useful for treating cardiovascular disorders associated with proliferative activity. Specifically, these compounds include N^2-cycloheptyl-N^4-(3-fluoro-4-methoxyphenyl)-N^6-methyl-N^6-(1-methyl-piperidin-4-yl)-1,3,5-triazine-2,4,6-triamine, and N^2-cycloheptyl-N^4-methyl-N^4-(1-methyl-piperidin-4-yl)-N^6-naphthalen-2-yl-1,3,5-triazine-2,4,6-triamine.
Methods for identifying the activity and screening for one or more of these compounds or molecules that induce synthesis of proteoglycans such as HSPG (heparan sulfate proteoglycan) are taught in U.S. patent application Ser. No. 10/091,357, which is incorporated herein in its entirety. Assays of effects of compounds in vivo are also taught in the incorporated references and are known to those skilled in the art. In general, methods comprise the addition of such compounds to assays and measurement of HSPG synthesis including, but not limited to, the production of syndecans, glypicans and perlecans, for example, syndecans 1, 2 and 4; and glypican-1. Other assays that can be used to determine the activity of the compounds of the present invention include other methods for measuring the induction of perlecan synthesis. For example, in one assay, perlecan is induced in cells by certain inducers, and the response is measured. Compounds of the present invention are then added to a replicate assay and the effect on perlecan induction is determined. Using such methods, compounds are determined that can either inhibit perlecan, elevate induction of perlecan, or that have no effect at all. Those compounds that are effective as therapeutic agents can then be used in animals, humans or patients with cellular proliferation disease aspects, such as vascular-associated diseases or SMC proliferation pathologies.
Another assay for determining compounds having SMC effects comprises adding a composition suspected of affecting SMC proliferation to smooth muscle cells in growth medium or serum-free medium. The change in cell proliferation can be measured by methods known to those skilled in the art, such as incorporation of labeled nucleotides into dividing cells' DNA, and compared to the proliferation of cells which are not treated with the compound. Other measurements include directly determining levels of HSPG synthesis by measuring the amount or change in amount of HSPG such as with ELISA for HSPGs, and compared to the amount of HSPG synthesis in untreated cells. Other indirect or direct measurement are contemplated by the present invention and are known to those skilled in the art. For example, such methods include, but are not limited to, measurement of RNA levels, RT-PCR, Northern blotting, Western blotting promoter-based assays to identify compounds that affect one or more proteoglycans and assays for proteoglycan biological activity shown by recombinant proteins, partially purified proteins, or lysates from cells expressing proteoglycans in the presence or absence of compounds of interest.

SMILES	activity in anti-proliferation assay (Perlecan), in words	further results
COc1ccc(Nc2nc(NC3CCCCCC3)nc(OCC3CCCN3C)n2)cc1Cl (stereo not drawn) [N-(3-Chloro-4-methoxy-phenyl)-N′-cycloheptyl-6-(1-methyl-pyrrolidin-2-ylmethoxy)-[1,3,5]triazine-2,4-diamine]	high activity	
COc1cc(OC)c(-c2nc(Nc3ccc(OC)c(Cl)c3)nc(NC3CCCCCC3)n2)c(OC)c1 [N-(3-Chloro-4-methoxy-phenyl)-N′-cycloheptyl-6-(2,4,6-trimethoxy-phenyl)-[1,3,5]triazine-2,4-diamine]	high activity	
COc1ccc(-c2nc(Nc3ccc(OC)c(Cl)c3)nc(NC3CCCCCC3)n2)c(OC)c1 [N-(3-Chloro-4-methoxy-phenyl)-N′-cycloheptyl-6-(2,4-dimethoxy-phenyl)-[1,3,5]triazine-2,4-diamine]	high activity	
COc1ccc(Nc2nc(NC3CCCCCC3)nc(Sc3c(Cl)cccc3Cl)n2)cc1Cl [N-(3-Chloro-4-methoxy-phenyl)-N′-cycloheptyl-6-(2,6-dichloro-phenylsulfanyl)-[1,3,5]triazine-2,4-diamine]	high activity	
COc1ccc(Nc2nc(NC3CCCCCC3)nc(Oc3ccccc3F)n2)cc1Cl [N-(3-Chloro-4-methoxy-phenyl)-N′-cycloheptyl-6-(2-fluoro-phenoxy)-[1,3,5]triazine-2,4-diamine]	high activity	
COc1ccc(Nc2nc(NC3CCCCCC3)nc(Oc3ccccc3I)n2)cc1Cl [N-(3-Chloro-4-methoxy-phenyl)-N′-cycloheptyl-6-(2-iodo-phenoxy)-[1,3,5]triazine-2,4-diamine]	high activity	
COc1ccc(Nc2nc(NC3CCCCCC3)nc(Sc3ccccc3OC)n2)cc1Cl [N-(3-Chloro-4-methoxy-phenyl)-N′-cycloheptyl-6-(2-methoxy-phenylsulfanyl)-[1,3,5]triazine-2,4-diamine]	high activity	
COc1ccc(Nc2nc(NC3CCCCCC3)nc(Sc3ccc(F)cc3)n2)cc1Cl [N-(3-Chloro-4-methoxy-phenyl)-N′-cycloheptyl-6-(4-fluoro-phenylsulfanyl)-[1,3,5]triazine-2,4-diamine]	high activity	
COc1ccc(Nc2nc(NC3CCCCCC3)nc(Oc3ccc(I)cc3)n2)cc1Cl [N-(3-Chloro-4-methoxy-phenyl)-N′-cycloheptyl-6-(4-iodo-phenoxy)-[1,3,5]triazine-2,4-diamine]	high activity	
COc1ccc(Nc2nc(NC3CCCCCC3)nc(Oc3cccc(C)n3)n2)cc1Cl [N-(3-Chloro-4-methoxy-phenyl)-N′-cycloheptyl-6-(6-methyl-pyridin-2-yloxy)-[1,3,5]triazine-2,4-diamine]	high activity	
COc1ccc(Nc2nc(NC3CCCCCC3)nc(Oc3cccnc3)n2)cc1Cl [N-(3-Chloro-4-methoxy-phenyl)-N′-cycloheptyl-6-(pyridin-3-yloxy)-[1,3,5]triazine-2,4-diamine]	high activity	
COc1ccc(Nc2nc(NC3CCCCCC3)nc(OCC3CCCO3)n2)cc1Cl (stereo not drawn) [N-(3-Chloro-4-methoxy-phenyl)-N′-cycloheptyl-6-(tetrahydro-furan-2-ylmethoxy)-[1,3,5]triazine-2,4-diamine]	high activity	
COc1ccc(Nc2nc(NC3CCCCCC3)nc(OCCOc3ccccc3F)n2)cc1Cl [N-(3-Chloro-4-methoxy-phenyl)-N′-cycloheptyl-6-[2-(2-fluoro-phenoxy)-ethoxy]-[1,3,5]triazine-2,4-diamine]	high activity	
COc1ccc(Nc2nc(NC3CCCCCC3)nc(OC(C)C)n2)cc1Cl [N-(3-Chloro-4-methoxy-phenyl)-N′-cycloheptyl-6-isopropoxy-[1,3,5]triazine-2,4-diamine]	high activity	
COc1ccc(Nc2nc(NC3CCCCCC3)nc(Sc3ccccc3)n2)cc1Cl [N-(3-Chloro-4-methoxy-phenyl)-N′-cycloheptyl-6-phenylsulfanyl-[1,3,5]triazine-2,4-diamine]	high activity	
COc1ccc(Nc2nc(NCC3CCCO3)nc(NC3CCCCCC3)n2)cc1Cl (stereo not drawn) [N-(3-Chloro-4-methoxy-phenyl)-N′-cycloheptyl-N″-(tetrahydro-furan-2-ylmethyl)-[1,3,5]triazine-2,4,6-triamine]	high activity	
COc1ccc(Nc2nc(NC3CCCCCC3)nc(NC3CCNCC3)n2)cc1Cl [N-(3-Chloro-4-methoxy-phenyl)-N′-cycloheptyl-N″-piperidin-4-yl-[1,3,5]triazine-2,4,6-triamine]	high activity	
CCN1CCCC1CNc1nc(Nc2ccc(OCc3ccccc3)c(Cl)c2)nc(NC2CCCCCC2)n1 (stereo not drawn) [N-(4-Benzyloxy-3-chloro-phenyl)-N′-cycloheptyl-N″-(1-ethyl-pyrrolidin-2-ylmethyl)-[1,3,5]triazine-2,4,6-triamine]	high activity	
CCOc1nc(Nc2ccc(OC)c(F)c2)nc(NC2CCCCCC2)n1 [N-Cycloheptyl-6-ethoxy-N′-(3-fluoro-4-methoxy-phenyl)-[1,3,5]triazine-2,4-diamine]	high activity	
CCN1CCCC1CNc1nc(Nc2ccc(C)c(F)c2)nc(NC2CCCCCC2)n1 (stereo not drawn) [N-Cycloheptyl-N′-(1-ethyl-pyrrolidin-2-ylmethyl)-N″-(3-fluoro-4-methyl-phenyl)-[1,3,5]triazine-2,4,6-triamine]	high activity	
Cc1ccc(Nc2nc(NC3CCCCCC3)nc(N(C)C3CCN(C)CC3)n2)cc1F [N-Cycloheptyl-N′-(3-fluoro-4-methyl-phenyl)-N″-methyl-N″-(1-methyl-piperidin-4-yl)-[1,3,5]triazine-2,4,6-triamine]	high activity	
CN1CCC(N(C)c2nc(Nc3cccc(F)c3)nc(NC3CCCCCC3)n2)CC1 [N-Cycloheptyl-N′-(3-fluoro-phenyl)-N″-methyl-N″-(1-methyl-piperidin-4-yl)-[1,3,5]triazine-2,4,6-triamine]	high activity	
CN1CCC(N(C)c2nc(Nc3cccc([N+](=O)[O-])c3)nc(NC3CCCCCC3)n2)CC1 [N-Cycloheptyl-N′-methyl-N′-(1-methyl-piperidin-4-yl)-N″-(3-nitro-phenyl)-[1,3,5]triazine-2,4,6-triamine]	high activity	
COc1ccc(Nc2nc(NC3CCCCCC3)nc(N(C)C3CCN(C)CC3)n2)cc1F [N^2-cycloheptyl-N^4-(3-fluoro-4-methoxyphenyl)-N^6-methyl-N^6-(1-methyl-piperidin-4-yl)-1,3,5-triazine-2,4,6-triamine]	medium or moderate activity	
CN1CCC(N(C)c2nc(Nc3ccc4ccccc4c3)nc(NC3CCCCCC3)n2)CC1 [N^2-cycloheptyl-N^4-methyl-N^4-(1-methyl-piperidin-4-yl)-N^6-naphthalen-2-yl-1,3,5-triazine-2,4,6-triamine]	high activity	
COc1ccc(Nc2nc(NC3CCCCCC3)nc(OCC3CCCN3C)n2)cc1Cl (stereo not drawn) [drawing 575, N-(3-Chloro-4-methoxy-phenyl)-N′-cyclo-heptyl-6-(1-methyl-pyr-rolidin-2-ylmethoxy)-[1,3,5]tri-azine-2,4-diamine]		IC50 (class of IC50, read-out: Activity (note 1)): 3 to 7 µM; IC50 (some cells print no unit, read-out: Avg IC-50): 5 µM

Reference: patent publication US7335770B2, “Triazine compounds and their analogs, compositions, and methods” (Reddy U5 Therapeutics, Inc., priority 2004, dated 2008)
